Where two headings read alike, the source gives them in different places. * marks the point of attachment. Exatecan = CC[C@@]1(O)C(=O)OCc2c1cc1n(c2=O)Cc2c-1nc1cc(F)c(C)c3c1c2[C@@H](N*)CC3
Key:
[1] = system: SC-6 human gastric tumor; assay: Antitumor activity, SC-6 tumor-bearing nude mice, single i.v. administration; assay type: in vivo, human tumor in nude mice; settings: for Inhibition rate / Numbers of died mice/mice used: calculated based on the drug compound
Procedure: (§1) SC-6 tumor-bearing nude mice (5 mice per group) were prepared by subcutaneously transplanting a piece of SC-6 human gastric tumor block into the right inguinal regions of nude mice (13AI,B/c-nu/nu, male). On day 27 after the transplantation, the drug complex of Example 15 dissolved in distilled water for injection was given as a single intravenous administration and its antitumor activity was compared to that of the drug compound, per se.

[2] = system: Meth A tumor-bearing mice; assay: Pharmacokinetics of the drug complex in Meth A tumor-bearing mice; assay type: in vivo, mouse; settings: 10 mg/kg single, calculated as the drug compound
Procedure: Meth A tumor-bearing mice were prepared according to a similar manner to that of Example 11, the drug complex of Example 15 was given as single administration in a similar manner to that of Example 12 (10 mg/kg: calculated as the drug compound), and the change of the drug complex concentration in various tissues was determined.

[3] = system: Human lung cancer QG-90; assay: Antitumor activity, human lung cancer QG-90-bearing nude mice, single i.v. administration; assay type: in vivo, human tumor in nude mice; settings: for Inhibition rate / Numbers of died mice/mice used: calculated based on the drug compound
Procedure: as §1
Human lung cancer QG-90-bearing nude mice (5 mice per group) were prepared according to a similar manner to that of Example 53. On day 16 after the transplantaion, the drug complex of Example 15 dissolved in distilled water for injection was given as a single intravenous administration and its antitumor activity was compared to that of the drug compound, per se.

[4] = system: Meth A tumor-bearing mice; assay: Antitumor activity, Meth A tumor-bearing mice, single administration on day 7; assay type: in vivo, mouse
Procedure: (§2) Meth A tumor-bearing mice were prepared (7 mice per group) by subcutaneously transplanting 1×10^6 mouse fibrosarcoma Meth A cells into the right inguinal regions of BALB/c male mice (7-week old). On day 7, the drug complex of Example 9 dissolved in distilled water for injection was injected in the tail vein of the Meth A tumor-bearing mice every 4 days 4 times. On day 21 after the transplantation, tumor masses were excised and weighed to calculate the inhibition rate of tumor growth according to the following equation: inhibition rate of tumor growth (%)=[1-(average tumor weight of the group administered with the test sample/average tumor weight of control group)]×100.
Meth A tumor-bearing mice (6 mice per group) were prepared according to a similar manner to that of Example 11 and the antitumor activity was compared to that obtained by single administration of the drug complexes of Examples 8 and 9 once on day 7.
(§3) Meth A tumor-bearing mice (6 mice per group) were prepared according to a similar manner to that of Example 11 and the antitumor activity of the drug complex of Example 15 was examined by single administration in a similar manner to that of Example 12.
as §3, with “1,” for “11”, “41” for “15”, “in the cases of” for “by”, “12, and its antitumor activity was compared to that of the drug compound, per se.” for “12.”
Meth A tumor-bearing mice (6 mice per group) were prepared according to a similar manner to that of Example 11, and the antitumor activity was examined according to a similar method to that in Example 12 by single administration of the drug complexes of Examples 29, 43, and 44, respectively.

[5] = cited from earlier work
[6] = system: Meth A tumor-bearing mice; assay: Antitumor activity, Meth A tumor-bearing mice, i.v. every 4 days 4 times; assay type: in vivo, mouse; settings: for Inhibition rate: calculated based on the drug compound, day 21
Procedure: as §2

[7] = single i.v., compared to the drug compound, per se
[8] = single administration, compared to the drug compound, per se
[9] = Example 11, every 4 days 4 times

Carboxymethyldextran Polyalcohol-Gly-Gly-Phe-Gly-NH--A' (A--NH2 =DX-8951) [Example 15] ({carboxymethyldextran polyalcohol}-GGFG-Exatecan; also: N-terminus linked to carboxymethyldextran polyalcohol, C-terminus amide-linked to drug residue A' (DX-8951))
Inhibition rate ([1]; 2 mg/kg single i.v.): 71% | Numbers of died mice/mice used ([1]; 2 mg/kg single i.v.): 0/5 | Inhibition rate ([1]; 8 mg/kg single i.v.): 100% | Numbers of died mice/mice used ([1]; 8 mg/kg single i.v.): 0/5 | death due to toxicity (in words) ([1]; single i.v.): no death due to toxicity | antitumor activity (in words) [1, 7]: higher antitumor activity compared to the drug compound, per se | distribution in tumor tissues [2]: high distribution in tumor tissues | retention of blood level [2]: extremely long retention of blood level | tumor selectivity against liver and small intestine [2]: high tumor selectivity against liver and small intestine | Inhibition rate ([3]; 1.75 mg/kg single i.v.): 97% | Numbers of died mice/mice used ([3]; 1.75 mg/kg single i.v.): 0/5 | Inhibition rate ([3]; 7 mg/kg single i.v.): 98% | Numbers of died mice/mice used ([3]; 7 mg/kg single i.v.): 0/5 | antitumor activity (in words) [3, 7]: remarkably enhanced antitumor activity | effective dose-range (in words) [3, 7]: broader effective dose-range | Inhibition rate ([4]; Example 52 (table 4), 1.25 mg/kg single, calculated based on the drug compound): 83% | Inhibition rate ([4]; Example 52 (table 4), 2.5 mg/kg single, calculated based on the drug compound): 95% | Inhibition rate ([4]; Example 52 (table 4), 5 mg/kg single, calculated based on the drug compound): 99% | Inhibition rate ([4]; Example 52 (table 4), 10 mg/kg single, calculated based on the drug compound): 100% | antitumor activity (in words) [4, 8]: remarkably enhanced antitumor activity | effective dose-range (in words) [4, 8]: broader effective dose-range

CC[C@@]1(O)C(=O)OCc2c1cc1n(c2=O)Cc2c-1nc1cc(F)c(C)c3c1c2[C@@H](N)CC3 [DX-8951, (1S,9S)-1-amino-9-ethyl-5-fluoro-2,3-dihydro-9-hydroxy-4-methyl-1H,12H-benzo[de]pyrano[3',4':6,7]indolizino[1,2-b]quinoline-10,13(9H,15H)-dione, reference compound]
lactone ring equilibrium ([5]; acidic aqueous medium, approximately at pH 3): compound whose lactone ring is closed | lactone ring equilibrium ([5]; basic aqueous medium, approximately at pH 10): compound whose lactone ring is opened | Inhibition rate ([4]; Example 12 (Table 3), 20 mg/kg single): 59% | Inhibition rate ([4]; Example 12 (Table 3), 60 mg/kg single): 77%

Carboxymethyldextran Polyalcohol-Gly-Gly-Phe-Gly-NH--A' (A--NH2 =DX-8951) [Example 9] ({carboxymethyldextran polyalcohol}-GGFG-Exatecan; also: N-terminus linked to carboxymethyldextran polyalcohol, C-terminus amide-linked to drug residue A' (DX-8951))
Inhibition rate ([6]; 0.35 × 4 mg/kg): 41% | Inhibition rate ([6]; 0.7 × 4 mg/kg): 59% | Inhibition rate ([6]; 1.4 × 4 mg/kg): 94% | antitumor activity (in words) [6, 9]: remarkably enhanced antitumor activity compared to the drug compound, per se | toxicity (weight loss) [6, 9]: no toxicity (weight loss) | Inhibition rate ([4]; Example 12 (Table 3), 2.5 mg/kg single, calculated based on the drug compound): 87% | Inhibition rate ([4]; Example 12 (Table 3), 5 mg/kg single, calculated based on the drug compound): 98% | antitumor activity (in words) [4, 8]: (Polysaccharide derivative)-Gly-Gly-Phe-Gly-NH--A'> (Polysaccharide derivative)-Gly-Gly-Gly-Phe-NH--A'> the drug compound, per se
